{"source": "patent US7138361B2", "about": "“Herbicidal heterocycles” (E. I. du Pont de Nemours and Company, priority 2000, dated 2006)", "format_in_all_cases": "in vivo", "key": {"[1]": {"system": "goosegrass (Eleusine indica)", "test": "Test C preemergence", "outline": "(§1)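 Pre- and postemergence treatments used a non-phytotoxic solvent/surfactant formulation; post-treated plants measured 2 to 18 cm. Greenhouse hold 12–14 d; % control estimated visually relative to controls.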"}, "[2]": {"system": "crabgrass (Digitaria sanguinalis)", "test": "Test C preemergence", "outline": "as §1"}, "[3]": {"system": "cocklebur (Xanthium strumarium)", "test": "Test C preemergence", "outline": "as §1"}, "[4]": {"system": "velvetleaf (Abutilon theophrasti)", "test": "Test C preemergence", "outline": "as §1"}, "kochia (Kochia scoparia)": {"system": "kochia (Kochia scoparia)", "test": "Test C preemergence", "outline": "as §1"}, "[5]": {"system": "woolly cupgrass (Eriochloa villosa)", "test": "Test C preemergence", "outline": "as §1"}, "[6]": {"system": "Surinam grass (Brachiaria decumbens)", "test": "Test C preemergence", "outline": "as §1"}, "[7]": {"system": "morningglory (Ipomoea hederacea)", "test": "Test C preemergence", "outline": "as §1"}, "Nightshade": {"system": "Nightshade", "test": "Test C preemergence"}, "[8]": {"system": "giant foxtail (Setaria faberii)", "test": "Test C preemergence", "outline": "as §1"}, "corn (Zea mays)": {"system": "corn (Zea mays)", "test": "Test C preemergence", "outline": "as §1"}, "[9]": {"system": "bermudagrass (Cynodon dactylon)", "test": "Test C preemergence", "outline": "as §1"}, "[10]": {"system": "yellow nutsedge (Cyperus esculentus)", "test": "Test C preemergence", "outline": "as §1"}, "[11]": {"system": "lambsquarters (Chenopodium album)", "test": "Test C preemergence", "outline": "as §1"}, "[12]": {"system": "common ragweed (Ambrosia elatior)", "test": "Test C preemergence", "outline": "as §1"}, "Sunflower": {"system": "Sunflower", "test": "Test C preemergence", "conditions": "Rate 125 g/ha; scale 0 to 100, 0 no effect, 100 complete control"}, "[13]": {"system": "pigweed (Amaranthus retroflexus)", "test": "Test C preemergence", "outline": "as §1"}, "soybean (Glycine max)": {"system": "soybean (Glycine max)", "test": "Test C preemergence", "outline": "as §1"}, "[14]": {"system": "johnsongrass (Sorghum halepense)", "test": "Test C preemergence", "outline": "as §1"}, "[15]": {"system": "barnyardgrass (Echinochloa crus-galli)", "test": "Test C flooded paddy test", "conditions": "for Barnyardgrass plant response rating: Flooded Paddy, scale 0 to 100, 0 no effect, 100 complete control; for Plant response rating, Barnyardgrass: flooded paddy test, scale 0 to 100 (0 no effect, 100 complete control)", "outline": "(§2)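 2-leaf-stage plants, flooded paddy; treated; greenhouse 12–14 days; compared with controls by eye; rated 0–100 (0 none, 100 complete control).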"}, "[16]": {"system": "duck salad (Heteranthera limosa)", "test": "Test C flooded paddy test", "conditions": "for Ducksalad plant response rating: Flooded Paddy, scale 0 to 100, 0 no effect, 100 complete control; for Plant response rating, Ducksalad: flooded paddy test, scale 0 to 100 (0 no effect, 100 complete control)", "outline": "as §2"}, "[17]": {"system": "smallflower flatsedge (Cyperus difformis)", "test": "Test C flooded paddy test", "conditions": "for Flatsedge plant response rating: Flooded Paddy, scale 0 to 100, 0 no effect, 100 complete control; for Plant response rating, Flatsedge: flooded paddy test, scale 0 to 100 (0 no effect, 100 complete control)", "outline": "as §2"}, "[18]": {"conditions": "Rate 125 g/ha, scale 0 to 100, 0 no effect, 100 complete control"}, "[19]": {"conditions": "preemergence, Rate 62 g/ha, scale 0 to 100"}, "[20]": {"conditions": "preemergence, Rate 500 g/ha, visual evaluation after 12 to 14 days"}, "[21]": {"conditions": "preemergence, Rate 250 g/ha, scale 0 to 100, 0 no effect, 100 complete control"}}}
{"smiles": "CCC(CC)c1ccn(C2CCN(c3cccc(OC)c3)C2=O)n1", "note": "(stereo not drawn) [Compound 96]", "values": [{"measurement": "Plant response rating, Goosegrass", "setting": "[1]; [18]", "result": 100}, {"measurement": "Plant response rating, Goosegrass", "setting": "[1]; [19]", "result": 100}, {"measurement": "Plant response rating (0 to 100), Goosegrass", "setting": "[1]; [20]", "result": 100}, {"measurement": "Plant response rating, Goosegrass", "setting": "[1]; [21]", "result": 100}, {"measurement": "Plant response rating, Crabgrass", "setting": "[2]; [18]", "result": 100}, {"measurement": "Plant response rating, Crabgrass", "setting": "[2]; [19]", "result": 100}, {"measurement": "Plant response rating (0 to 100), Crabgrass", "setting": "[2]; [20]", "result": 100}, {"measurement": "Plant response rating, Crabgrass", "setting": "[2]; [21]", "result": 100}, {"measurement": "Plant response rating, Cocklebur", "setting": "[3]; [18]", "result": 20}, {"measurement": "Plant response rating, Cocklebur", "setting": "[3]; [19]", "result": 0}, {"measurement": "Plant response rating (0 to 100), Cocklebur", "setting": "[3]; [20]", "result": 30}, {"measurement": "Plant response rating, Cocklebur", "setting": "[3]; [21]", "result": 30}, {"measurement": "Plant response rating, Velvetleaf", "setting": "[4]; [18]", "result": 0}, {"measurement": "Plant response rating, Velvetleaf", "setting": "[4]; [19]", "result": 0}, {"measurement": "Plant response rating (0 to 100), Velvetleaf", "setting": "[4]; [20]", "result": 40}, {"measurement": "Plant response rating, Velvetleaf", "setting": "[4]; [21]", "result": 30}, {"measurement": "Plant response rating, Kochia", "setting": "kochia (Kochia scoparia); [18]", "result": 100}, {"measurement": "Plant response rating, Kochia", "setting": "kochia (Kochia scoparia); [19]", "result": 100}, {"measurement": "Plant response rating (0 to 100), Kochia", "setting": "kochia (Kochia scoparia); [20]", "result": 100}, {"measurement": "Plant response rating, Kochia", "setting": "kochia (Kochia scoparia); [21]", "result": 100}, {"measurement": "Plant response rating, Cupgrass, Woolly", "setting": "[5]; [18]", "result": 95}, {"measurement": "Plant response rating, Cupgrass, Woolly", "setting": "[5]; [19]", "result": 60}, {"measurement": "Plant response rating (0 to 100), Cupgrass, Woolly", "setting": "[5]; [20]", "result": 100}, {"measurement": "Plant response rating, Cupgrass, Woolly", "setting": "[5]; [21]", "result": 100}, {"measurement": "Plant response rating, Surinam grass", "setting": "[6]; [18]", "result": 90}, {"measurement": "Plant response rating, Surinam grass", "setting": "[6]; [19]", "result": 50}, {"measurement": "Plant response rating (0 to 100), Surinam grass", "setting": "[6]; [20]", "result": 100}, {"measurement": "Plant response rating, Surinam grass", "setting": "[6]; [21]", "result": 100}, {"measurement": "Plant response rating, Morningglory", "setting": "[7]; [18]", "result": 0}, {"measurement": "Plant response rating, Morningglory", "setting": "[7]; [19]", "result": 0}, {"measurement": "Plant response rating (0 to 100), Morningglory", "setting": "[7]; [20]", "result": 20}, {"measurement": "Plant response rating, Morningglory", "setting": "[7]; [21]", "result": 20}, {"measurement": "Plant response rating, Nightshade", "setting": "Nightshade; Rate 62 g/ha, scale 0 to 100", "result": 0}, {"measurement": "Plant response rating, Nightshade", "setting": "Nightshade; [18]", "result": 10}, {"measurement": "Plant response rating, Nightshade", "setting": "Nightshade; Rate 250 g/ha, scale 0 to 100, 0 no effect, 100 complete control", "result": 60}, {"measurement": "Plant response rating, Foxtail, Giant", "setting": "[8]; [18]", "result": 0}, {"measurement": "Plant response rating, Foxtail, Giant", "setting": "[8]; [19]", "result": 100}, {"measurement": "Plant response rating (0 to 100), Foxtail, Giant", "setting": "[8]; [20]", "result": 100}, {"measurement": "Plant response rating, Foxtail, Giant", "setting": "[8]; [21]", "result": 0}, {"measurement": "Plant response rating, Corn", "setting": "corn (Zea mays); [18]", "result": 20}, {"measurement": "Plant response rating, Corn", "setting": "corn (Zea mays); [19]", "result": 0}, {"measurement": "Plant response rating (0 to 100), Corn", "setting": "corn (Zea mays); [20]", "result": 50}, {"measurement": "Plant response rating, Corn", "setting": "corn (Zea mays); [21]", "result": 40}, {"measurement": "Plant response rating, Bermudagrass", "setting": "[9]; [18]", "result": 100}, {"measurement": "Plant response rating, Bermudagrass", "setting": "[9]; [19]", "result": 100}, {"measurement": "Plant response rating (0 to 100 where 0 is no effect and 100 is complete control), Bermudagrass", "setting": "[9]; [20]", "result": 100}, {"measurement": "Plant response rating, Bermudagrass", "setting": "[9]; [21]", "result": 100}, {"measurement": "Plant response rating, Nutsedge", "setting": "[10]; [18]", "result": 0}, {"measurement": "Plant response rating, Nutsedge", "setting": "[10]; [19]", "result": 0}, {"measurement": "Plant response rating (0 to 100), Nutsedge", "setting": "[10]; [20]", "result": 70}, {"measurement": "Plant response rating, Nutsedge", "setting": "[10]; [21]", "result": 10}, {"measurement": "Plant response rating, Lambsquarters", "setting": "[11]; [18]", "result": 100}, {"measurement": "Plant response rating, Lambsquarters", "setting": "[11]; [19]", "result": 100}, {"measurement": "Plant response rating (0 to 100), Lambsquarters", "setting": "[11]; [20]", "result": 100}, {"measurement": "Plant response rating, Lambsquarters", "setting": "[11]; [21]", "result": 100}, {"measurement": "Plant response rating, Ragweed, Common", "setting": "[12]; [18]", "result": 0}, {"measurement": "Plant response rating, Ragweed, Common", "setting": "[12]; [19]", "result": 0}, {"measurement": "Plant response rating (0 to 100), Ragweed, Common", "setting": "[12]; [20]", "result": 70}, {"measurement": "Plant response rating, Ragweed, Common", "setting": "[12]; [21]", "result": 40}, {"measurement": "Plant response rating, Sunflower", "setting": "Sunflower", "result": 0}, {"measurement": "Plant response rating, Pigweed", "setting": "[13]; [18]", "result": 0}, {"measurement": "Plant response rating, Pigweed", "setting": "[13]; [19]", "result": 0}, {"measurement": "Plant response rating (0 to 100), Pigweed", "setting": "[13]; [20]", "result": 50}, {"measurement": "Plant response rating, Pigweed", "setting": "[13]; [21]", "result": 0}, {"measurement": "Plant response rating, Soybean", "setting": "soybean (Glycine max); [18]", "result": 0}, {"measurement": "Plant response rating, Soybean", "setting": "soybean (Glycine max); [19]", "result": 0}, {"measurement": "Plant response rating (0 to 100), Soybean", "setting": "soybean (Glycine max); [20]", "result": 70}, {"measurement": "Plant response rating, Soybean", "setting": "soybean (Glycine max); [21]", "result": 50}, {"measurement": "Plant response rating, Johnsongrass", "setting": "[14]; [18]", "result": 30}, {"measurement": "Plant response rating, Johnsongrass", "setting": "[14]; [19]", "result": 20}, {"measurement": "Plant response rating (0 to 100), Johnsongrass", "setting": "[14]; [20]", "result": 70}, {"measurement": "Plant response rating, Johnsongrass", "setting": "[14]; [21]", "result": 50}, {"measurement": "Barnyardgrass plant response rating", "setting": "[15]; Rate 250 g/ha", "result": 100}, {"measurement": "Barnyardgrass plant response rating", "setting": "[15]; Rate 500 g/ha", "result": 100}, {"measurement": "Plant response rating, Barnyardgrass", "setting": "[15]; Rate 62 g/ha", "result": 80}, {"measurement": "Plant response rating, Barnyardgrass", "setting": "[15]; Rate 125 g/ha", "result": 80}, {"measurement": "Ducksalad plant response rating", "setting": "[16]; Rate 250 g/ha", "result": 100}, {"measurement": "Ducksalad plant response rating", "setting": "[16]; Rate 500 g/ha", "result": 100}, {"measurement": "Plant response rating, Ducksalad", "setting": "[16]; Rate 62 g/ha", "result": 80}, {"measurement": "Plant response rating, Ducksalad", "setting": "[16]; Rate 125 g/ha", "result": 90}, {"measurement": "Flatsedge plant response rating", "setting": "[17]; Rate 250 g/ha", "result": 100}, {"measurement": "Flatsedge plant response rating", "setting": "[17]; Rate 500 g/ha", "result": 100}, {"measurement": "Plant response rating, Flatsedge", "setting": "[17]; Rate 62 g/ha", "result": 90}, {"measurement": "Plant response rating, Flatsedge", "setting": "[17]; Rate 125 g/ha", "result": 90}]}
